This test concerns the target T1, acetylcholine-binding protein (AcAChBP) (Aplysia californica, UniProt Q8WSF8).
T1 sequence (Q8WSF8 20-236): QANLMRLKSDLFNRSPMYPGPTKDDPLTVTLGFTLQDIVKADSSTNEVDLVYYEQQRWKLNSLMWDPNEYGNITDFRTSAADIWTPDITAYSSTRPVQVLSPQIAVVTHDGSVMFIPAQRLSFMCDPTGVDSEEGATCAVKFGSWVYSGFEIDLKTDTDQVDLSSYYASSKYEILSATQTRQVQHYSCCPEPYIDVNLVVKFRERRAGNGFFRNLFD
The test can be described thus: tryptophan fluorescence quenching.

The values below come from publication PMC7611415 (Chembiochem : a European journal of chemical biology, 2020).

One may read the Kd as a measure of binding affinity in units of concentration. Higher therefore signals a looser complex. As for `C[N+]1(C)CCc2cc3c(cc2[C@H]1[C@@H]1OC(=O)c2c1ccc1c2OCO1)OCO3` [N-methylbicuculline], the Kd was 1.2 ± 0.1 µM.
